Active and inactive are the calls of the source. The rule behind the calls is not given here.
Tests used:
[1] = Inhibition of HIV reverse transcriptase expressed in Escherichia coli by Dixon plot; parameters: species or system Human immunodeficiency virus
[2] = system: Human immunodeficiency virus; test: Inhibition of HIV reverse transcriptase activity expressed in Escherichia coli
[3] = system: Human immunodeficiency virus; test: Inhibition of HIV reverse transcriptase expressed in Escherichia coli assessed as non-competitive inhibition using dTTP as primer by double reciprocal plot
[4] = system: Rauscher murine leukemia virus; test: Inhibition of Rauscher murine leukemia virus reverse transcriptase activity
[5] = system: Human immunodeficiency virus; test: Inhibition of HIV reverse transcriptase expressed in Escherichia coli assessed as competitive inhibition using (rA)n.(dT)12-18 as primer by double reciprocal plot
DNA polymerase beta [6] = target: T1, DNA polymerase beta (Homo sapiens, UniProt P06746); test: Inhibition of DNA polymerase beta from human KB3 cells assessed as competitive type inhibition using (rA)n.(dT)12-18 as substrate
[7] = target: DNA polymerase I (Escherichia coli) (UniProt P00582); test: Inhibition of DNA polymerase-1 from Escherichia coli up to 1 ug/ml
DNA polymerase I (Escherichia coli), sequence (P00582 whole entry): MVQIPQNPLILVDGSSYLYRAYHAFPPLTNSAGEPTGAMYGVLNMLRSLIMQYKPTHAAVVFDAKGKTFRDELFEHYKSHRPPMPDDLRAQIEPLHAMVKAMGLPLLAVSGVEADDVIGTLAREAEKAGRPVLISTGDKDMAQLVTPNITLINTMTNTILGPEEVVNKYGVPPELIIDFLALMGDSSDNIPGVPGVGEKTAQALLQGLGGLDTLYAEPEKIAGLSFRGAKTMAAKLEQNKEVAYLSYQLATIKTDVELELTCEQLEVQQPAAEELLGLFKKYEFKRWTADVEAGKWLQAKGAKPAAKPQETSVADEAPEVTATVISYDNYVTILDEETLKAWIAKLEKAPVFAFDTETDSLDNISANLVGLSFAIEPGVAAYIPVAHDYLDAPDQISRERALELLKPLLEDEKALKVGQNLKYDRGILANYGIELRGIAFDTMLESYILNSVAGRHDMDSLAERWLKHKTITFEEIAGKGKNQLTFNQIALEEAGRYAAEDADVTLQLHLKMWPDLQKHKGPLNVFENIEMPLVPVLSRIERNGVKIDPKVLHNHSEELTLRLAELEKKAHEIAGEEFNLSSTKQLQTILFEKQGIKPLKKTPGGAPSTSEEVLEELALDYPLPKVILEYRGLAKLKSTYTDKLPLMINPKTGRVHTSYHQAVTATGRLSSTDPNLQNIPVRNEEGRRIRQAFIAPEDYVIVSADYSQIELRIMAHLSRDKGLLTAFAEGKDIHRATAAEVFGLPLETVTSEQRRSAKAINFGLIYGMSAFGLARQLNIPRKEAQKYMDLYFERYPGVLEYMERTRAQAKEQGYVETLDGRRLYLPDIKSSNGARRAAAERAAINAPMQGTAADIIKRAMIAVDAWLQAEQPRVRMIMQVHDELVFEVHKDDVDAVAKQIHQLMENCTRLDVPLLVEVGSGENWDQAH

[8] = target: DNA nucleotidylexotransferase (Bos taurus) (UniProt P06526); test: Inhibition of terminal deoxynucleotidyltransferase from calf thymus up to 1 ug/ml
DNA nucleotidylexotransferase (Bos taurus), sequence (P06526 whole entry): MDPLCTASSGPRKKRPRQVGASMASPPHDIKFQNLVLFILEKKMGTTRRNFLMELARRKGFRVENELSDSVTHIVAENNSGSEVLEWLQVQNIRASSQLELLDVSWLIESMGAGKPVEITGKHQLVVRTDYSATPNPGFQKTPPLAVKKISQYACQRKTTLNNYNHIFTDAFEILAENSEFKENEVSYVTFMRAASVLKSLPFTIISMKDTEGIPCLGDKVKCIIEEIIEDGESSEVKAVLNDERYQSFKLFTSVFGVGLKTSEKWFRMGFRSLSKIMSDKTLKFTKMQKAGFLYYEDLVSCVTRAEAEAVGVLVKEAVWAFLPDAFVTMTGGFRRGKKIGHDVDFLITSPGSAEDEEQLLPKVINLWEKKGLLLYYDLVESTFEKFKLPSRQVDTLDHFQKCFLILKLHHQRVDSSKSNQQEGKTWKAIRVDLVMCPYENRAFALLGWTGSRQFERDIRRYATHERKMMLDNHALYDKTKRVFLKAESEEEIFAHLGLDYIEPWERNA

[9] = system: Human immunodeficiency virus; test: Inhibition of HIV reverse transcriptase expressed in Escherichia coli assessed as mixed-type inhibition using (rA)n.(dT)12-18 as primer by double reciprocal plot
[10] = target: T2, DNA polymerase alpha catalytic subunit (Homo sapiens) (UniProt P09884); test: Inhibition of DNA polymerase alpha from human KB3 cells assessed as competitive type inhibition using activated DNA as substrate
T2 sequence (whole entry): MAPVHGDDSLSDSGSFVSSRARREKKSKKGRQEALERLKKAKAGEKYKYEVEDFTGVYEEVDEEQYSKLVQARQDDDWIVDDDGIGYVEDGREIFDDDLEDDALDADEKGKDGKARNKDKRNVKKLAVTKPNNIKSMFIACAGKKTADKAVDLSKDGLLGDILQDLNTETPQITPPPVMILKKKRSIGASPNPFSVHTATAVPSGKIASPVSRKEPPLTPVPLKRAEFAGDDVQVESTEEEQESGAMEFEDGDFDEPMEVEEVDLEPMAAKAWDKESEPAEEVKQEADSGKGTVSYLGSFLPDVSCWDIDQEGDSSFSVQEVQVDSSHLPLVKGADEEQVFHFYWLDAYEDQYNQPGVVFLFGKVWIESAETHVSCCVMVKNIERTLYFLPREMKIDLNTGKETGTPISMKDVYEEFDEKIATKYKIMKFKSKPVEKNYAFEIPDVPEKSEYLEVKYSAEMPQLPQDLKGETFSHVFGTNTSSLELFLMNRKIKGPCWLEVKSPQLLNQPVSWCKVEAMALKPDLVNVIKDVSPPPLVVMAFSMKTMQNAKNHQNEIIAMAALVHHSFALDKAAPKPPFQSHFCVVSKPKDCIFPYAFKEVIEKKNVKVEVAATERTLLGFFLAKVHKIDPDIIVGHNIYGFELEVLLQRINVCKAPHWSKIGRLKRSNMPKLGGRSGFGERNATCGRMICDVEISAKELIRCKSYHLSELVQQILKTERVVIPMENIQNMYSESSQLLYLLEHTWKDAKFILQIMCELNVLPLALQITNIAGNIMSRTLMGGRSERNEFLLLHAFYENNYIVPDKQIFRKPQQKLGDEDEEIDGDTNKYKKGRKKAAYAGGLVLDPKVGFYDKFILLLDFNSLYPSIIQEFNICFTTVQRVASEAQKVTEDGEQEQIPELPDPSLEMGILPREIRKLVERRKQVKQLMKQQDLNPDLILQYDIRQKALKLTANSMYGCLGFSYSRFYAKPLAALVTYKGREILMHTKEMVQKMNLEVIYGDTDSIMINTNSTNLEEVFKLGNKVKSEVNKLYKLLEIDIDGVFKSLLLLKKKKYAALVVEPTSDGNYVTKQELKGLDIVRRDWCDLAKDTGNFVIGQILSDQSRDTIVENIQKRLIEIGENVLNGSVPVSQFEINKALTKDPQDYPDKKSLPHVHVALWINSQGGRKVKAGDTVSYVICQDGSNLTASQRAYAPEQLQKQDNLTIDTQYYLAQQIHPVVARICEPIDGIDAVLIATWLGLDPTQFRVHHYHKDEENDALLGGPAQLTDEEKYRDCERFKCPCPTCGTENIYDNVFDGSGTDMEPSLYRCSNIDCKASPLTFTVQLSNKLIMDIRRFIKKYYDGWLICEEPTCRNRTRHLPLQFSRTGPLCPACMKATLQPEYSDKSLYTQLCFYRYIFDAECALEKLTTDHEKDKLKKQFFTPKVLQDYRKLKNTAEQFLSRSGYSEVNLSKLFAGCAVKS

[11] = target: T2, DNA polymerase alpha catalytic subunit (Homo sapiens); test: Inhibition of DNA polymerase alpha from human KB3 cells assessed as non-competitive type inhibition using dNTP as substrate
DNA polymerase beta [12] = target: T1, DNA polymerase beta; test: Inhibition of DNA polymerase beta from human KB3 cells; format: cell-based
[13] = system: Rauscher murine leukemia virus; test: Inhibition of Rauscher murine leukemia virus reverse transcriptase assessed as incorporation of [3H]dTMP at 1 ug/ml
[14] = target: T2, DNA polymerase alpha catalytic subunit (Homo sapiens); test: Inhibition of DNA polymerase alpha from human KB3 cells at 1 ug/ml; format: cell-based
[15] = system: Human immunodeficiency virus; test: Inhibition of HIV reverse transcriptase expressed in Escherichia coli assessed as incorporation of [3H]dTMP at 1 ug/ml
KB3 = test: Inhibition of DNA polymerase gamma from human KB3 cells up to 1 ug/ml; format: cell-based
DNA polymerase beta [16] = target: T1, DNA polymerase beta; test: Inhibition of DNA polymerase beta from human KB3 cells assessed as non-competitive type inhibition using dTTP as substrate
[17] = system: Human immunodeficiency virus; test: Inhibition of HIV reverse transcriptase expressed in Escherichia coli assessed as incorporation of [3H]dTMP at 0.2 ug/ml
[18] = target: T3, DNA polymerase alpha catalytic subunit (Homo sapiens, UniProt P09884); test: Inhibition of DNA polymerase alpha from human KB3 cells; format: cell-based
T3 sequence (P09884 whole entry): T2 sequence (whole entry)

[19] = system: Rauscher murine leukemia virus; test: Inhibition of Rauscher murine leukemia virus reverse transcriptase assessed as incorporation of [3H]dTMP at 0.2 ug/ml
[20] = system: Human immunodeficiency virus; test: Inhibition of HIV reverse transcriptase expressed in Escherichia coli assessed as incorporation of [3H]dTMP at 10 ug/ml
[21] = system: Rauscher murine leukemia virus; test: Inhibition of Rauscher murine leukemia virus reverse transcriptase assessed as incorporation of [3H]dTMP at 10 ug/ml

Row | SMILES | Ki [1] [nM] | Activity [2] | Activity [3] | Activity [4] | other results
1 | COCCOCCOC(=O)c1cc(O)c(O)c(OC(=O)c2ccc(O)c(O)c2O)c1 | 120 | Active | Active | Active | Activity [5]: Active
2 | COCCOCCOc1c(C(=O)Oc2cc(C(=O)O)cc(O)c2O)ccc(O)c1O |  | inactive |  | inactive | 
3 | O=C(O)c1cc(O)c(O)c(OC(=O)c2cc(O)c(O)c(O)c2)c1 [DIGALLIC ACID] | 580 |  | Active |  | Activity (DNA polymerase beta [6]): Active; Activity [7]: inactive; Activity [8]: inactive; Activity [9]: Active; Activity [10]: Active; Activity [11]: Active; Ki (DNA polymerase beta [12]): 390 nM; Activity [13]: Active; inhibition [14]: > 90%; Activity [15]: Active; Activity (KB3): inactive; Activity (DNA polymerase beta [16]): Active; inhibition [17]: 70%; Ki [18]: 830 nM; inhibition [19]: 70%
4 | COCCOCCOC(=O)c1cc(O)c(O)c(O)c1 |  | inactive |  | inactive | 
5 | COCCOCCOCCOC(=O)c1cc(O)c(O)c(OC(=O)c2ccc(O)c(O)c2O)c1 | 390 | Active | Active | Active | Activity [9]: Active
6 | O=C(Oc1cc(O)cc(O)c1C(=O)O)c1ccc(O)c(O)c1 |  | inactive |  | inactive | 
7 | COCCOCCOCCOC(=O)c1cc(O)c(O)c(O)c1 |  | inactive |  | inactive | 
8 | O=C(O)c1cc(O)c(O)c(O)c1 |  | inactive |  | inactive | Activity [20]: inactive; Activity [21]: inactive
9 | COCCOCCOc1c(O)ccc(C(=O)Oc2cc(C(=O)O)cc(O)c2O)c1O |  | inactive |  | inactive | 

— ChEMBL document CHEMBL1137797, “Differential inhibition of reverse transcriptase and various DNA polymerases by digallic acid and its derivatives” (J Nat Prod, 1990)
